Compound: COc1c(-c2cn(-c3c(C(F)(F)F)c(C(F)(F)C(F)(F)F)nn3C)nn2)cccc1N(C)C(=O)c1c(F)cc(F)cc1F
- melting point: 80 to 82 °C

From patent publication US20130253011A1, “INSECTICIDAL COMPOUNDS” (SYNGENTA PARTICIPATIONS AG, priority 2010, published 2013)
